Measured values reported in patent US5202315A, “Cephalosporin compounds” (Lucky, Ltd., priority 1989, dated 1993).
Values after ≈ are worked out from the molar mass of the structure shown. Like-named read-outs stand apart in the source and are kept apart here.

What was measured:
[1] = system: Acinetobacter calcoaceticus ATCC 15473; assay: Antibacterial activity, MIC; assay type: cell-based; settings: ATCC15473, ATCC 15473, agar two-fold dilution, 37° C., 20 hours, read-out: MIC
Procedure, shortened: (§1)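 The compound is dispersed into Mueller-Hinton agar across a two-fold dilution series. Each strain is applied as 2 μl of a 10^7 CFU/ml suspension and grown 20 hours at 37 °C.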

[2] = system: Bacillus cereus ATCC 11778; assay: Antibacterial activity, MIC; assay type: cell-based; settings: ATCC11778, ATCC 11778, agar two-fold dilution, 37° C., 20 hours, read-out: MIC
Procedure, shortened: as §1

[3] = system: Bacillus megaterium ATCC 9885; assay: Antibacterial activity, MIC; assay type: cell-based; settings: Priestia megaterium, ATCC9885; ATCC 9885; agar two-fold dilution, 37° C., 20 hours; read-out: MIC
Procedure, shortened: as §1

[4] = system: Citrobacter freundii ATCC 8090; assay: Antibacterial activity, MIC; assay type: cell-based; settings: ATCC8090, ATCC 8090, agar two-fold dilution, 37° C., 20 hours, read-out: MIC
Procedure, shortened: as §1

[5] = system: Enterobacter aerogenes ATCC 29751; assay: Antibacterial activity, MIC; assay type: cell-based; settings: Klebsiella aerogenes, ATCC29751; ATCC 29751; agar two-fold dilution, 37° C., 20 hours; read-out: MIC
Procedure, shortened: as §1

[6] = system: Enterobacter cloacae ATCC 27508; assay: Antibacterial activity, MIC; assay type: cell-based; settings: ATCC27508, ATCC 27508, agar two-fold dilution, 37° C., 20 hours, read-out: MIC
Procedure, shortened: as §1

[7] = system: Escherichia coli ATCC 10536; assay: Antibacterial activity, MIC; assay type: cell-based; settings: ATCC10536, agar two-fold dilution, 37° C., 20 hours
Procedure, shortened: as §1

[8] = system: Escherichia coli ATCC 25922; assay: Antibacterial activity, MIC; assay type: cell-based; settings: ATCC25922, agar two-fold dilution, 37° C., 20 hours
Procedure, shortened: as §1

[9] = system: Klebsiella pneumoniae ATCC 10031; assay: Antibacterial activity, MIC; assay type: cell-based; settings: ATCC10031, ATCC 10031, agar two-fold dilution, 37° C., 20 hours, read-out: MIC
Procedure, shortened: as §1

[10] = system: Micrococcus luteus ATCC 9341; assay: Antibacterial activity, MIC; assay type: cell-based; settings: ATCC9341, ATCC 9341, agar two-fold dilution, 37° C., 20 hours, read-out: MIC
Procedure, shortened: as §1

[11] = system: Morganella morganii ATCC 8076h; assay: Antibacterial activity, MIC; assay type: cell-based; settings: ATCC8076H, agar two-fold dilution, 37° C., 20 hours
Procedure, shortened: as §1

[12] = system: Proteus mirabilis ATCC 25933; assay: Antibacterial activity, MIC; assay type: cell-based; settings: ATCC25933, ATCC 25933, agar two-fold dilution, 37° C., 20 hours, read-out: MIC
Procedure, shortened: as §1

[13] = system: Proteus vulgaris ATCC 6059; assay: Antibacterial activity, MIC; assay type: cell-based; settings: ATCC6059, ATCC 6059, agar two-fold dilution, 37° C., 20 hours, read-out: MIC
Procedure, shortened: as §1

[14] = system: Providencia rettgeri ATCC 9250; assay: Antibacterial activity, MIC; assay type: cell-based; settings: ATCC9250, agar two-fold dilution, 37° C., 20 hours
Procedure, shortened: as §1

[15] = system: Pseudomonas aeruginosa ATCC 10145; assay: Antibacterial activity, MIC; assay type: cell-based; settings: ATCC10145, ATCC 10145, agar two-fold dilution, 37° C., 20 hours, read-out: MIC
Procedure, shortened: as §1

[16] = system: Pseudomonas aeruginosa ATCC 25619; assay: Antibacterial activity, MIC; assay type: cell-based; settings: ATCC25619, ATCC 25619, agar two-fold dilution, 37° C., 20 hours, read-out: MIC
Procedure, shortened: as §1

[17] = system: Pseudomonas aeruginosa ATCC 27853; assay: Antibacterial activity, MIC; assay type: cell-based; settings: ATCC27853, ATCC 27853, agar two-fold dilution, 37° C., 20 hours, read-out: MIC
Procedure, shortened: as §1

[18] = system: Salmonella typhimurium ATCC 14028; assay: Antibacterial activity, MIC; assay type: cell-based; settings: Salmonella enterica; ATCC 14028; agar two-fold dilution, 37° C., 20 hours; read-out: MIC
Procedure, shortened: as §1

[19] = system: Serratia marcescens ATCC 27117; assay: Antibacterial activity, MIC; assay type: cell-based; settings: ATCC27117, ATCC 27117, agar two-fold dilution, 37° C., 20 hours, read-out: MIC
Procedure, shortened: as §1

[20] = system: Shigella flexneri ATCC 11836; assay: Antibacterial activity, MIC; assay type: cell-based; settings: ATCC11836, agar two-fold dilution, 37° C., 20 hours
Procedure, shortened: as §1

[21] = system: Shigella sonnei ATCC 11060; assay: Antibacterial activity, MIC; assay type: cell-based; settings: ATCC11060, ATCC 11060, agar two-fold dilution, 37° C., 20 hours, read-out: MIC
Procedure, shortened: as §1

[22] = system: Staphylococcus aureus ATCC 10537; assay: Antibacterial activity, MIC; assay type: cell-based; settings: ATCC10537, ATCC 10537, agar two-fold dilution, 37° C., 20 hours, read-out: MIC
Procedure, shortened: as §1

[23] = system: Staphylococcus aureus ATCC 6538p; assay: Antibacterial activity, MIC; assay type: cell-based; settings: ATCC6538P, ATCC 6538p, agar two-fold dilution, 37° C., 20 hours, read-out: MIC
Procedure, shortened: as §1

[24] = system: Staphylococcus epidermidis ATCC 12228; assay: Antibacterial activity, MIC; assay type: cell-based; settings: ATCC12228, ATCC 12228, agar two-fold dilution, 37° C., 20 hours, read-out: MIC
Procedure, shortened: as §1

[25] = system: Streptococcus faecalis ATCC 29212; assay: Antibacterial activity, MIC; assay type: cell-based; settings: Enterococcus faecalis, ATCC29212; ATCC 29212; agar two-fold dilution, 37° C., 20 hours; read-out: MIC
Procedure, shortened: as §1

[26] = In-vivo absorbency (plasma concentrations & pharmacokinetic parameters); design: species or system SD rat (male); settings: plasma, SD male rat, iv 20 mg/kg; for half-life: rat, iv, 20 mg/kg
Source text: The blood samples from the femoral vein of the rats were taken every hour after administration, and analyzed by bio-assay(agar well method).
Tested animal: SD male Rat (220~340 g)

Pseudomonas = assay: Antibacterial activity; assay type: cell-based; settings: statement in words
[27] = In-vivo absorbency (plasma concentrations & pharmacokinetic parameters); design: species or system SD rat (male); settings: plasma, SD male rat, iv 20 mg/kg, read-out: Plasma Conc.

CC(C)(O/N=C(\C(=O)NC1C(=O)N2C(C(=O)[O-])=C(CSc3nc(N)cc(N)[n+]3N)CS[C@H]12)c1csc(N)n1)C(=O)O (stereo partly shown) [Compound I-15, 7-[(Z)-2-(2-aminothiazol-4-yl)-2-(2-carboxyprop-2-oxyimino)acetamido]-3-(1,4,6-triaminopyrimidinium-2-yl) thiomethyl-3-cephem-4-carboxylate]
MIC [1]: 2 µg/mL (≈ 3.2 µM)
MIC [2]: 64 µg/mL (≈ 102 µM)
MIC [3]: 0.5 µg/mL (≈ 0.8 µM)
MIC [4]: 0.063 µg/mL (≈ 0.101 µM)
MIC [5]: 1 µg/mL (≈ 1.6 µM)
MIC [6]: 0.016 µg/mL (≈ 0.0256 µM)
MIC [7]: 0.063 µg/mL (≈ 0.101 µM)
MIC [8]: 0.063 µg/mL (≈ 0.101 µM)
MIC [9]: 0.063 µg/mL (≈ 0.101 µM)
MIC [10]: 0.25 µg/mL (≈ 0.4 µM)
MIC [11]: ≤ 0.008 µg/mL
MIC [12]: 0.016 µg/mL (≈ 0.0256 µM)
MIC [13]: 0.016 µg/mL (≈ 0.0256 µM)
MIC [14]: ≤ 0.008 µg/mL
MIC [15]: 1 µg/mL (≈ 1.6 µM)
MIC [16]: 1 µg/mL (≈ 1.6 µM)
MIC [17]: 1 µg/mL (≈ 1.6 µM)
MIC [18]: 0.13 µg/mL (≈ 0.208 µM)
MIC [19]: 0.063 µg/mL (≈ 0.101 µM)
MIC [20]: 0.031 µg/mL (≈ 0.0496 µM)
MIC [21]: 0.063 µg/mL (≈ 0.101 µM)
MIC [22]: 2 µg/mL (≈ 3.2 µM)
MIC [23]: 4 µg/mL (≈ 6.4 µM)
MIC [24]: 2 µg/mL (≈ 3.2 µM)
MIC [25]: > 128 µg/mL
concentration at 1 h ([26]; 60 min, read-out: Plasma Conc.): 2400 ng/mL
concentration at 2 h ([26]; 120 min, read-out: Plasma Conc.): 600 ng/mL
AUC ([26]; two compartment model): 43400 ng·h/mL
half-life ([26]; two compartment model, read-out: T1/2 (α)): 3 min
half-life ([26]; two compartment model, read-out: T1/2 (β)): 29 min
antibacterial activities, especially against Pseudomonas (Pseudomonas): excellent
concentration at 1 min ([27]; 1 min): 148000 ng/mL
concentration at 2.5 min ([27]; 2.5 min): 104000 ng/mL
concentration at 5 min ([27]; 5 min): 71000 ng/mL
concentration at 10 min ([27]; 10 min): 53000 ng/mL
concentration at 20 min ([27]; 20 min): 22000 ng/mL
concentration at 40 min ([27]; 40 min): 10000 ng/mL
